Assay results from patent US20160250238A1, “Method for the Prophylaxis or Treatment of Systemic Lupus Erythematosus and/or Lupus Nephritis” (MILLENNIUM PHARMACEUTICALS, INC., priority 2013, published 2016).
Marks after values point to notes of the source that are not given here.

How the values were obtained:
[1] = test system: anti-KLH IgG; test: ELISA for anti-KLH IgG titer in serum of KLH-immunized rats (rat KLH-TDAR model); type: in vivo, F344 rats; settings: for Anti-KLH IgG titer: twice weekly for 4 weeks, serum, mean ± SE (n = 10)
Protocol: (§1) F344 rats (male, 7 weeks old) were immunized with KLH plus adjuvant twice at day 0 and day 14. From 8 days after last immunization, rats were administered with vehicle or compound (I) (0.3 mpk, i.v. or 1.5 mpk, p.o.) twice weekly for 4 weeks, then the rats were sacrificed and serum, spleen and bone marrow were collected. All study protocols were approved by TAKEDA Animal Care and Use Committee.
Serum was stored at −80° C. until use. Anti-KLH IgG titer in serum was measured by ELISA (KLH rat IgG ELISA kit, Shibayagi).
(§2) Data represent mean values+s.e.m. (n=10). Student t test was used for statistical analysis (*p<0.05, **p<0.01 vs. control).

[2] = test system: anti-KLH antibody producing cells; test: ELISpot assay of anti-KLH IgG-secreting cells from spleen and bone marrow of KLH-immunized rats; type: in vivo, F344 rats; settings: for The number of anti-KLH IgG-secreting cells, bone marrow / The number of anti-KLH IgG-secreting cells, Spleen: twice weekly for 4 weeks, mean ± SE (n = 10)
Protocol: as §1
Splenocytes and bone marrow cells were collected from spleen and bone marrow. The cells were cultured for 2 hours on 96 well plate pre-coated with KLH (Sigma, H7017-20 MG), then after washing with PBS, the plates were incubated with goat anti-rat IgG, HRP conjugate (Millipore, AP136P) for 1 hour. Anti-KLH antibody producing cells were visualized by adding TMB substrate and the number of anti-KLH antibody producing cells were counted by ELISpot reader system (AID).
as §2

CC(C)C[C@H](NC(=O)CNC(=O)c1cc(Cl)ccc1Cl)B(O)O [Compound (I), [(1R)-1-({[(2,5-dichlorobenzoyl)amino]acetyl}amino)-3-methylbutyl]boronic acid]
Anti-KLH IgG titer ([1]; 0.3 mpk, iv): 509.5 ± 54.4* | Anti-KLH IgG titer ([1]; 1.5 mpk, po): 545.8 ± 67.0* | effect on anti-KLH IgG titer (in words) ([1]; four weeks treatment, 0.3 mpk, i.v. or 1.5 mpk, p.o.): significantly suppressed the anti-KLH IgG titer | The number of anti-KLH IgG-secreting cells, bone marrow ([2]; 0.3 mpk, iv): 103.9 ± 16.9** /3 × 10^5cells | The number of anti-KLH IgG-secreting cells, Spleen ([2]; 0.3 mpk, iv): 37.0 ± 6.8** /1 × 10^6cells | The number of anti-KLH IgG-secreting cells, bone marrow ([2]; 1.5 mpk, po): 156.4 ± 32.0 /3 × 10^5cells | The number of anti-KLH IgG-secreting cells, Spleen ([2]; 1.5 mpk, po): 50.1 ± 12.2* /1 × 10^6cells | effect on the number of anti-KLH IgG-producing cells in spleen and bone marrow (in words) ([2]; four weeks treatment, 0.3 mpk, i.v. or 1.5 mpk, p.o., ELISpot): suppressed the number of anti-KLH IgG-producing cells in spleen and bone marrow
